The source of these data is PubChem BioAssay AID1671244.

The target in this assay is Casein kinase I isoform delta (Homo sapiens) (UniProt P48730). Kind of assay: inhibition of CK1 delta activity – biochemical, Z'-LYTE, FRET, direct format, dose response (AID 1671244). Conditions: recombinant CK1 delta.

pIC50: −log10 of the molar value.

Casein kinase I isoform delta (Homo sapiens), sequence (P48730 whole entry, looked up, canonical isoform): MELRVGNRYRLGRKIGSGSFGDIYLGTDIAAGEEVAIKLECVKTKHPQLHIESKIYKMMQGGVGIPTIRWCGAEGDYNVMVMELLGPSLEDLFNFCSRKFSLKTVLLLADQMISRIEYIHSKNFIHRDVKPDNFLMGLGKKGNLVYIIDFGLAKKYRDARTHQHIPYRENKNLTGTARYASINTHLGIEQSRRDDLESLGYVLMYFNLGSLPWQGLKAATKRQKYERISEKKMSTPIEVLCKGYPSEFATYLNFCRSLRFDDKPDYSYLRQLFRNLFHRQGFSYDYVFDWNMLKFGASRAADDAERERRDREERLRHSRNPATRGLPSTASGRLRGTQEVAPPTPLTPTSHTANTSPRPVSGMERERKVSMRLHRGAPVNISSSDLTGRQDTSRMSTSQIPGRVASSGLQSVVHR

For `Brc1c(Br)c(Br)c2n[nH]nc2c1Br`, the negative-log IC50 (pIC50) is 5.43.
